Ends that are not written are not given here.
Key:
[1] = tested on: E. coli D31 outer membrane; assay: E. coli outer membrane permeabilization (nitrocefin / β-lactamase); format: cell-based, Escherichia coli; settings: E. coli D31, nitrocefin hydrolysis, absorbance 486 nm, up to 90 minutes; peptide serially diluted from 15 μM; average of three replicates
Protocol: A single colony of E.coli D31 was taken from an LB agar plate and inoculated into fresh LB broth with 100 μg/mL ampicillin (LB-Amp), then place in a shaking incubator at 37 C (225 rpm) for ~ 18 hours. After the incubation period 100 μL was taken from the culture and diluted with 25 mL of fresh LB-Amp. The dilution was further incubated in the same conditions until an OD600 of 0.2 to 0.4 was obtained. Once the specified OD600 was reached the culture was then centrifuged at 2500 rpm for 15 minutes in a tabletop clinical centrifuge. The supernatant was discarded and then an equal amount of PBS (100 mM NaH2PO4, 200 mM NaCl, pH7) was used to resuspend the pellet.
Experimental samples were prepared in a 96-well plate in the order as follows: 10 μL of the six peptide variants that were serially diluted starting a concentration of 15 μM with the exception of the last row (used as a negative control 10 μL of 0.01% acetic acid). 80 μL of the resuspended bacteria culture, and 10 μL of 50 μg/mL nitrocefin in PBS. The absorbance was recorded at 486 nm in 5-minute intervals for a total run time of 90 minutes immediately following the addition of nitrocefin. The antimicrobial agent polymyxin B was used as a positive control. The values presented are the average of three replicates.
As the mechanism of action of the L1 venom peptide is likely a membrane disruptive mechanism, the effect of the hydrophobic substitutions on membrane permeabilization was investigated using E.coli and ovine red blood cells (RBCs). The permeabilization of the E. coli outer membrane was assayed using an enzyme-substrate pair in which the enzyme (β-lactamase) is located in the periplasmic space while the substrate (the chromogenic nitrocefin) is added to the exterior of cells. […] Similarly, the permeabilization of the E. coli inner membrane was assessed using a cytoplasmic enzyme, β-galactosidase, and a chromogenic substrate, ONPG. […]

[2] = tested on: Gram-positive and Gram-negative strains; assay: Antimicrobial activity over the MIC panel; format: cell-based; settings: highest concentration tested 15μM
Protocol: Six different strains of bacteria were streaked on LB-Miller agar plates from a frozen glycerol stock derived from the original samples shipped from CGSC (Coli Genetic Stock Center, Yale University) or ATCC (American Type Culture Collection) (Escherichia coli D31 CGSC 5165 ([Burman, Nordstrom & Boman, 1968]), Staphylococcus aureus ATCC 35556. Pseudomonas aeruginosa PA-01 ATCC 47085, Acinetobacter baumannii ATCC 19606). For each of the strains a liquid overnight culture was prepared using a single colony into fresh LB broth and placed in a shaking incubator for ~ 18 hours at 37 C at 225 rpm. After the incubation period, a 1:200 dilution was made in fresh LB broth and then used for experimentation. Minimal Inhibitory Concentration (MIC) determinations were performed using mid-log phase bacteria diluted to 5 x 10^5 CFU/mL. Next, 90 μL of this diluted culture was then pipetted into a sterile 96-well plate that contains serially diluted aliquots of the peptide variants to consist of a total volume of 100 μL. This plate was then incubated for 18 hours at 37 C. Bacterial growth was determined by taking an OD600 measurement using a Spectramax M5 multimode plate reader post incubation. Minimal Bactericidal Concentration (MBC) was performed by taking 1 μL of the culture from the MIC plate and then pipetting it on to a fresh LB agar plate. After plating this culture, the plate was then incubated overnight at 37 C. MBC was determined by the growth or the lack of growth from each well on the agar plate.
The ability of L1 and the hydrophobic variants to act as antimicrobials was investigated using the Minimal Inhibitory Concentration (MIC) and Minimal Bactericidal Concentration (MBC) assays as previously described ([Wiegand, Hilpert & Hancock, 2008]). The MIC is determined as the lowest concentration of peptide required to inhibit bacterial growth in solution, while the MBC is the lowest concentration required to act in a bactericidal mechanism (as opposed to bacteriostatic) and is determined by plating MIC cultures on antimicrobial-free media. Peptides were screened against E. coli, S. aureus, A. baumannii, P. aeruginosa, B. subtilis, and K. pneumoniae.

[3] = Red edge excitation shift (REES) solution aggregation assay; format: physicochemical; settings: 2 μM peptide in PBS pH 7.0, λex 280 to 307 nm, emission 310 to 410 nm, Trp fluorescence, average of three replicates
Text: All fluorescence spectroscopy experiments were preformed using a JY-Horiba Fluoromax4 instrument. Excitation and emission slit widths were kept consistent at 2.5 nm. Semi-micro quartz cuvettes were utilized for each experiment. The following formula was used to calculate a spectral barycenter for each experiment: (1) B=∑λ*i/∑i where B is the barycenter, λ is the wavelength, and i is the intensity at the specified wavelength. An entire emission spectrum from 300-400 was used the carry out the calculation of barycenter.
Red edge excitation shift (REES) experiments utilized excitation at 6 different wavelengths (λex = 280, 290, 295, 300, 305, and 307 nm) and the same emission range of 310 to 410 nm. Samples were similarly prepared as above. A blank only containing PBS buffer was used as background to correct the spectra after each addition.
Aggregation of peptides was assessed utilizing the intrinsic fluorescence properties of the Trp residue in the L1 sequence. […] Differences in the side chain motion/dynamics of the Trp residue and the local environment around the Trp can be observed by monitoring the red-edge excitation shifts (REES). […]

## LLKELWTKMKGAGKALLGKLKGLL [L1L]
[1]
  Outer membrane permeabilization: increased permeability of the outer membrane
[2]
  Antimicrobial activity (summary of MIC results): broad spectrum activity

## FFKEFWTKMKGAGKAFFGKFKGFF [L1F]
[3]
  REES total shift: ~ 2 nm
[1]
  Outer membrane permeabilization: increased permeability of the outer membrane
[2]
  Antimicrobial activity (summary of MIC results): broad spectrum activity

From article PMC9114170, “Investigation of the Role of Hydrophobic Amino Acids on the Structure-Activity Relationship in the Antimicrobial Venom Peptide Ponericin L1” (The Journal of membrane biology, 2021)
